Tests used:
Assay type in all cases: in vivo, C57BL/6 mice
[1] = test system: mycoplasma-induced pulmonary fibrosis model (MPFH strain); assay: Mycoplasma-induced pulmonary fibrosis model; conditions: 120 mg/kg/d intragastric, 14 days; for Leucocyte / Lymphocyte / Neutrophil: MPFH mycoplasma + bleomycin, once a day, from two weeks after model; for Ashcroft scores: mycoplasma + bleomycin, lung tissue HE
From the text: Experimental method: an in-vivo mycoplasma-induced pulmonary fibrosis model was established: C57BL/6 mice (with weights being 22-25 g) were randomly and evenly divided into a plurality of groups, including blank control group, model group, Nintedanib positive control group, hypoxanthine analogue A group, hypoxanthine analogue B group, hypoxanthine analogue C group, compound 1 group, compound 2 group . . . compound 12 group, with 9 mice in each group. Before a model was established, the mice were anesthetized with diethyl ether. In addition to that the mice in blank control group with instilled with 100 μL of normal saline nasally, the mice in other groups with slowly instilled with an equal volume of a MPFH strain solution (containing 1×10^7 mL^−1 MPFH strain) to the nasal cavity, for consecutive 3 days, and inhaled the MPFH strain solution into bronchi. After instillation with mycoplasmas through tracheas, the mice received 5 mg/kg bleomycin through tracheas to induce their pulmonary fibrosis. After the model was established for two weeks, the mice in each group were intragastrically administrated for intervention for consecutive 14 days; the mice in blank control group and model group intragastrically received an equal dosage of normal saline as those in drug groups; the mice in Nintedanib positive control group received Nintedanib (120 mg/kg); the mice in hypoxanthine analogue A group, hypoxanthine analogue B group and hypoxanthine analogue C group respectively received hypoxanthine analogue A (120 mg/kg/d), hypoxanthine analogue B (120 mg/kg/d) and hypoxanthine analogue C (120 mg/kg/d); and the mice in compound 1 group, compound 2 group . . . compound 12 group respectively received compound 1 (120 mg/kg/d), compound 2 (120 mg/kg/d) . . . compound 12 (120 mg/kg/d) prepared in example 1. The mice were administrated once a day to be treated for consecutive 14 days. The mice were observed every day, and their weights and death conditions were recorded. On the last day of administration, the mice were sacrificed; and blood was taken from eyeballs and kept at −80° C. for detecting blood routine indexes. Meanwhile, lungs were lavaged with normal saline and separated to collect lavage fluids for detecting counts and classes of leucocytes; and lung tissues were taken for HE straining and Ashcroft scoring on the extent of pulmonary fibrosis.

[2] = test system: bleomycin-induced pulmonary fibrosis model; assay: Early pulmonary fibrosis: bleomycin-induced model, dosing from one week after modelling; conditions: for Leucocyte / Lymphocyte / Neutrophil / Ashcroft scores: early pulmonary fibrosis, 120 mg/kg/d intragastric, 14 days, from one week after model; for Leucocyte / Lymphocyte / Neutrophil: blood, Day 15, twice every day; for Ashcroft scores: lung tissue HE staining; for inhibition (anti-inflammatory) effect on leucocytes, neutrophils and lymphocytes in blood: mice with early pulmonary fibrosis, result in words
[3] = test system: coronavirus-induced pulmonary fibrosis model (HcoV-OC43); assay: Coronavirus-induced pulmonary fibrosis model; conditions: 120 mg/kg/d intragastric, 14 days; for Ashcroft scores: coronavirus HcoV-OC43 + bleomycin, lung tissue HE; for IL-1β / IL-6 / NF-κB / TNF-α: serum, HcoV-OC43 + bleomycin, from two weeks after model
From the text: Experimental method: an in-vivo coronavirus-induced pulmonary fibrosis model mice was established: C57BL/6 mice (with weights being 22-25 g) were randomly and evenly divided into a plurality of groups, including blank control group, model group, Nintedanib positive control group, hypoxanthine analogue A group, hypoxanthine analogue B group, hypoxanthine analogue C group, compound 1 group, compound 2 group . . . compound 12 group, with 9 mice in each group. On Day 1, the mice in the blank control group were instilled with normal saline nasally, and the mice in other groups were all infected with HcoV-OC43 coronavirus strains (30 μL) through nasal instillation. On Day 2, the mice received 5 mg/kg bleomycin through tracheas to induce their pulmonary fibrosis. After the model was established for two weeks, the mice in each group were intragastrically administrated for intervention for consecutive 14 days; the mice in blank control group and model group intragastrically received the same dosage of the normal saline as those in drug groups; the mice in Nintedanib positive control group received Nintedanib (120 mg/kg); the mice in hypoxanthine analogue A group, hypoxanthine analogue B group and hypoxanthine analogue C group respectively received hypoxanthine analogue A (120 mg/kg/d), hypoxanthine analogue B (120 mg/kg/d) and hypoxanthine analogue C (120 mg/kg/d); and the mice in compound 1 group, compound 2 group . . . compound 12 group respectively received compound 1 (120 mg/kg/d), compound 2 (120 mg/kg/d) . . . compound 12 (120 mg/kg/d) prepared in example 1. After administration for consecutive 14 days, the mice were observed every day, and their weights and death conditions were recorded. After administration, blood was taken from eyeballs for immediately detecting the expression levels of NF-κB, TNF-α, IL-1 and IL-6 in serum, and lung tissues were taken for HE detection and Ashcroft scoring.

[4] = test system: bleomycin-induced pulmonary fibrosis model; assay: Comparison with comparative drugs: bleomycin-induced model, hydroxyproline and TGF-β; conditions: 120 mg/kg/d intragastric, twice every day, 14 days, from two weeks after model; Day 15

SMILES | Leucocyte [1] | Lymphocyte [1] | Neutrophil [1] | Ashcroft scores [1] | Leucocyte [2] | Lymphocyte [2] | Neutrophil [2] | Ashcroft scores [2] | Ashcroft scores [3] | IL-1β [3] [pg/mL] | IL-6 [3] [pg/mL] | NF-κB [3] [pg/mL] | TNF-α [3] [pg/mL] | Hydroxyproline in bronchoalveolar lavage fluids [4] [µg/mg] | Hydroxyproline in lung tissues [4] [µg/mg] | TGF-β in bronchoalveolar lavage fluids [4] [µg/L] | TGF-β in lung tissues [4] [µg/L] | inhibition (anti-inflammatory) effect on leucocytes, neutrophils and lymphocytes in blood [2] | other results
CC(C)Oc1ncnc2c1N(C(C)C)CN2C(C)C [Compound 10] | 6.18 10^9/L | 72.54 10^9/L | 21.11 10^9/L | 1.45 | 4.17 10^9/L | 5.27 10^9/L | 1.21 10^9/L | 1.17 | 1.41 | 37.7 | 68.2 | 25.3 | 56.2 | 0.74 ± 0.06 | 1.37 ± 0.08 | 4.21 ± 0.18 | 24.12 ± 2.25 |  | 
CC(=O)Oc1ncnc2c1ncn2C(C)C [Compound 11] | 6.70 10^9/L | 73.25 10^9/L | 22.47 10^9/L | 1.50 | 4.09 10^9/L | 5.20 10^9/L | 1.10 10^9/L | 1.08 | 1.29 | 35.4 | 63.3 | 25.1 | 52.1 | 0.75 ± 0.05 | 1.43 ± 0.11 | 4.02 ± 0.15 | 23.98 ± 2.19 |  | 
CCC(=O)Oc1ncnc2c1ncn2C(C)C [Compound 12] | 6.12 10^9/L | 74.46 10^9/L | 21.68 10^9/L | 1.12 | 4.21 10^9/L | 5.24 10^9/L | 1.18 10^9/L | 1.14 | 1.37 | 35.8 | 66.5 | 27.7 | 54.4 | 0.76 ± 0.08 | 1.41 ± 0.12 | 4.06 ± 0.15 | 23.91 ± 2.38 |  | 
O=c1[nH]cnc2[nH]cnc12 [Hypoxanthine analogue A, reference compound] | 116.79 10^9/L | 567.15 10^9/L | 234.53 10^9/L | 6.64 | 52.12 10^9/L | 49.53 10^9/L | 41.21 10^9/L | 5.00 | 6.23 | 688.8 | 519.4 | 719.1 | 450.7 | 1.46 ± 0.13 | 2.69 ± 0.12 | 9.23 ± 0.26 | 96.47 ± 8.25 | obviously inferior | 
CC(C)Oc1ncnc2c1ncn2C [Hypoxanthine analogue B, reference compound] | 118.58 10^9/L | 568.05 10^9/L | 233.92 10^9/L | 6.30 | 49.97 10^9/L |  | 36.88 10^9/L | 5.39 | 6.12 | 560.6 | 522.2 | 730.1 | 454.4 | 1.81 ± 0.14 | 2.97 ± 0.19 | 8.95 ± 0.68 | 91.53 ± 9.56 | obviously inferior | 
COc1ncnc2c1ncn2C(C)C [Hypoxanthine analogue C, reference compound] |  |  |  |  |  |  |  |  |  |  |  |  |  | 1.12 ± 0.15 | 2.85 ± 0.25 | 7.42 ± 1.4 | 63.83 ± 7.52 | obviously inferior | Leucocyte ([1]; 120 mg/kg/day): 120.98 10^9/L; Lymphocyte ([1]; 120 mg/kg/day): 571.34 10^9/L; Neutrophil ([1]; 120 mg/kg/day): 238.07 10^9/L; Ashcroft scores ([1]; 120 mg/kg/day): 6.41; Leucocyte ([2]; 120 mg/kg/day): 50.11 10^9/L; Lymphocyte ([2]; 120 mg/kg/day): 50.06 10^9/L; Neutrophil ([2]; 120 mg/kg/day): 37.04 10^9/L; Ashcroft scores ([2]; 120 mg/kg/day): 5.46; Ashcroft scores ([3]; 120 mg/kg/day): 6.31; IL-1β ([3]; 120 mg/kg/day): 530.1 pg/mL; IL-6 ([3]; 120 mg/kg/day): 530.9 pg/mL; NF-κB ([3]; 120 mg/kg/day): 729.6 pg/mL; TNF-α ([3]; 120 mg/kg/day): 449.1 pg/mL
COC(=O)c1ccc2c(c1)NC(=O)/C2=C(\Nc1ccc(N(C)C(=O)CN2CCN(C)CC2)cc1)c1ccccc1 [Nintedanib, reference compound] | 122.15 10^9/L | 565.69 10^9/L | 232.24 10^9/L | 5.45 | 33.76 10^9/L | 33.87 10^9/L | 31.32 10^9/L | 3.69 | 4.11 | 525.3 | 421.5 | 521.3 | 411.3 | 1.25 ± 0.14 | 2.36 ± 0.12 | 7.11 ± 0.24 | 75.32 ± 7.51 | obviously inferior | 

Reference: patent US20250188082A1, “Use of Hypoxanthine Compound In Preparation of Drug For Treating Pulmonary Fibrosis” (Sichuan Yiasuo Pharmaceutical Technology Co., Ltd., priority 2022, published 2025)
